The values below come from US10227561B2, “Methods and compositions for targeting progenitor cell lines” (Mandala Biosciences, LLC, priority 2012, dated 2019).

One experiment deals with somatic cells. Conditions: cited from earlier work.
A further experiment relates to W10 progenitor cell line. The experiment is described as follows: Immunofluorescent staining of bound phage. Format: binding, human. As to conditions: peptide display phage, 2×10^10 pfu/well, live cells, 2 h at 37° C. The procedure:
The binding specificity of selected phages was determined by immunofluorescent staining of bound phage to the surface of W10 progenitor cell line. Cells were plated at 100,000 cells/well in 24 well plates and incubated overnight. Phages at 2×10^10 pfu/well were diluted in 0.5 ml of W10 growth media supplemented with 2% BSA and incubated with live cells for 2 h at 37° C. Cells were washed as for the selection experiments and fixed by 4% paraformaldehyde for 20 min at RT. Cells were washed twice with PBS and permeabilized by ice-cold MeOH for 15 min on ice. After another two washes, cells were blocked with 5% goat serum in 2% BSA in PBS for 1 h at RT or overnight at 4° C. Cells were incubated with 1:700 dilution of rabbit anti-Fd bacteriophage antibody (Sigma, B7786) in 2% BSA in PBS for 1 h at RT. Cells were washed with 2 ml of 1% BSA in PBS three times, and incubated with 1:1000 dilution of goat anti-rabbit AlexaFluor568 conjugated antibody (Invitrogen, A11011) in 1% BSA in PBS for 1 h at RT. Cells were counterstained with DAPI at 0.1 μg/ml after final washes and photographed by an Olympus IX71 fluorescence microscope. Images were taken and processed using MetaMorph (version 7.5.6.0, Molecular Devices), ImageJ (version 1.45b, National Institute of Health) or Photoshop (version 9.0.2, Adobe) software.

Experiment [1] relates to W10 cells. The experiment is described as follows: Peptide competition for phage binding. As to conditions: for specificity of binding (lack of competition with scrambled peptides): free peptide against scrambled peptide; for competition of the 2 peptides with each other for W10 cell binding: data not shown. Also noted: species or system human. How it is done:
Cells were plated at 100,000 cells/well in 24 well plates and incubated overnight. The corresponding synthetic peptide for each peptide phage or control peptides (unrelated or scrambled sequence peptide) were pre-incubated with cells at 5 nM or 5 μM in W10 growth media supplemented with 2% BSA for 30 min at 4° C. Peptide phages at 2×10^10 pfu/well were added to the peptide dilution and incubated with live cells for 1 h at 4° C. Peptide phage bound to cells was detected by immunostaining and fluorescence microscopy using anti-phage antibody on fixed and permeabilized cells or quantified by titration of phages recovered from cell lysates. The percentage of recovered phage for the competition assay was normalized by the recovered phage in the no-peptide control. Duplicate independent experiments were performed for competition experiments.

Experiment [2] relates to W10 cells. The experiment is described as follows: Cell labeling with peptide targeted Qdot complexes (microscopy, flow cytometry). Format: cell-based, human. How it is done: (§1) For flow cytometric analysis of labeled cells, cells were removed from the plates using TrypLE for 5 min at 37° C. Cells were resuspended in PBS, passed through strain top tubes and analyzed using flow cytometer. Control samples included unlabeled cells and cells labeled with untargeted Qdots. For each sample, 10,000 events were quantified. The LSRFortessa flow cytometer (BD Biosciences) was used with a violet laser excitation at 405 nm with a 605/23 bandpass filter to detect Qdot605 and the yellow laser excitation at 561 nm with a 670/30 bandpass filter to detect Qdot655. Cell autofluorescence was detected with the blue laser excited at 488 nm and a 510/25 bandpass filter.
2 μM of Qdot Streptavidin conjugate (Qdot605 ITK SA, Invitrogen, Q10001MP) were diluted in 100 μl of binding buffer (supplied with Qdot605 ITK SA) and incubated with 100-fold excess of biotinylated peptide on ice for 1 h. Uncoupled biotinylated peptide was removed from the mixture by incubating it with streptavidin magnetic beads equilibrated in PBS on ice for 30 min; placing the mixture on a magnetic stand to separate the beads and removed the complexes in solution. SA-beads were washed with PBS and combined with the recovered complexes. For control reactions, Qdots were incubated with binding buffer and treated in similar way as the peptide complexes. […]
A general note: In flow cytometry, cells or beads pass a laser one at a time.

Experiment [3] concerns 10 embryonic progenitor cell lines. In words: Selectivity of Qdot peptide complexes, panel of progenitor lines. Conditions: out of the 10 lines; peptide targeted Qdots, flow cytometry. Format: cell-based, human. How it is done:
(§2) FIG. 6. Selectivity of Qdot peptide complexes. Embryonic progenitor cell lines were labeled with Qdot complexes in their corresponding growth media and analyzed by flow cytometry as in (FIG. 5C). Percentage of labeled cells was calculated by setting up gates (allowing up to 1%) using the progenitor cell line labeled with untargeted Qdots and unlabeled cells. 10,000 events were recorded for each sample. Values are from triplicate experiments and shown as mean+/−standard error.
as §1
2 μM of Qdot Streptavidin conjugate (Qdot605 ITK SA, Invitrogen, Q10001MP) were diluted in 100 μl of binding buffer (supplied with Qdot605 ITK SA) and incubated with 100-fold excess of biotinylated peptide on ice for 1 h. […]

In experiment [4] the test system is hPS cells differentiated using culture conditions for definitive endoderm. In words: Peptide targeted Qdot labeling of differentiating hPS cells. Format: cell-based, human. Conditions: definitive endoderm conditions (high activin A, low serum); 5 nM, 16 h at 37° C. How it is done: (§3) FIG. 7A and FIG. 7B. Labeling of a differentiating pluripotent stem cells using peptide targeted Qdots. FIG. 7A: Selective peptide targeting of human embryonic stem cells (H9) that were differentiated into the three germ layers (see methods for protocols) for 6-8 days compared to undifferentiated control. Differentiated cells were incubated for 16 h at 37° C. with 5 nM of Qdot complexes, washed and imaged using a fluorescence microscope. Representative bright-field and fluorescent signal of W10 peptide Qdot complexes (red) are shown. FIG. 7B: Cells were stained with the following differentiation markers to verify the germ layer commitment: nestin for ectoderm, α-actinin for mesoderm, SOX17 for endoderm conditions and OCT3/4 for undifferentiated cells.
(§4) 2 μM of Qdot Streptavidin conjugate (Qdot605 ITK SA, Invitrogen, Q10001MP) were diluted in 100 μl of binding buffer (supplied with Qdot605 ITK SA) and incubated with 100-fold excess of biotinylated peptide on ice for 1 h. Uncoupled biotinylated peptide was removed from the mixture by incubating it with streptavidin magnetic beads equilibrated in PBS on ice for 30 min; placing the mixture on a magnetic stand to separate the beads and removed the complexes in solution. SA-beads were washed with PBS and combined with the recovered complexes. For control reactions, Qdots were incubated with binding buffer and treated in similar way as the peptide complexes. The concentration of Qdot-peptide complexes was estimated based on the final volume recovered. To label cells with the Qdot-complexes, 100,000 cells were plated on gelatin-coated wells of 24 well plates were incubated for 6 hours; 5 nM of Qdot-peptides in growth media was added to the cells and incubated for 16 h at 37° C. Cells were imaged after washes with PBS to remove the unbound Qdot-complexes.
(§5) For ectoderm differentiation conditions, embryoid bodies (EBs) were formed from colonies by manual techniques and grown in complete NPC media (DMEM-F12:Neurobasal media 1:1+50 μl/ml BIT9500 Serum substitute (Stemgent)+1% GlutaMax+1% penicillin-streptomycin+1 μl/ml B27 supplement (Invitrogen)+5 mM nicotinamide+5 μg/ml insulin+20 ng/ml EGF+20 ng/ml bFGF) in low attachment plates for 6 days; EBs were then plated on fibronectin-coated wells and grown for another 3 days. For mesoderm differentiation conditions, EBs were cultured as above except that media was DMEM-F12 with GlutaMax+20% FBS+1% NEAA+1% penicillin-streptomycin, and plated on 0.1% gelatin-coated wells. For endodermal differentiation conditions, undifferentiated H9 cells were transferred from colonies growing with MEFs to Geltrex™ (Life Technologies, Grand Island, N.Y.)-coated wells and grown for 2 days with MEF-conditioned media+4 ng/ml bFGF. From day 2, cells were grown for another 5 days in RPMI+0.5% FBS+100 ng/ml Activin A.

Experiment [5] relates to hPS cells grown under mesoderm differentiation conditions. The description is as above. Type of experiment: cell-based, human. Conditions: 5 nM, 16 h at 37° C. The procedure:
as §3, §4, §5

A further experiment concerns 4D20.8 cells. In words: Qdot peptide complex labeling, flow cytometry. Format: cell-based, human. How it is done:
as §2, §1, §4

Another experiment relates to 7PEND24 cell line. In words: Qdot peptide complex labeling, flow cytometry. Type of experiment: cell-based, human. As to conditions: for cell labeling by peptide Qdot complexes: 7PEND24, in words. How it is done: as §2, §1, §4
Another experiment has as its system E15 cells. In words: Qdot peptide complex labeling, flow cytometry. Type of experiment: cell-based, human. The procedure: as §2, §1, §4
Another experiment relates to MW1 cell line. In words: Qdot peptide complex labeling, flow cytometry. Type of experiment: cell-based, human. The procedure:
as §2, §1, §4

For another experiment, the system named is SM30 cell line. In words: Qdot peptide complex labeling, flow cytometry. Type of experiment: cell-based, human. How it is done:
as §2, §1, §4

Read-outs that look alike come from different tables or passages of the source.

In the case of `O=C(NCc1ccccc1)c1csc(Nc2ccncn2)n1` [Thiazovivin], the “increase of reprogramming efficiency” value with somatic cells (Thiazovivin with the two previous chemicals (SB431412, PD0325901)) is given as 200 fold.

With `CCCC(CCC)C(=O)O` [valproic acid], the “increase of reprogramming efficiency” value with somatic cells (compared to Yamanaka's traditional transcription factor method) is listed as 100 fold.

Turning to “DWLWSFAPNVDT (FROM PHAGE DISPLAY LIBRARY) [W10 R3 18, W10 selected 12-mer; tested as M13 display phage, C-terminal biotinylated free peptide and streptavidin Qdot complex]”, the “binding of peptide phage detected by immunocytochemical staining” value (“binding of peptide phage detected” below) in the experiment with W10 progenitor cell line is listed as “strongest binding”. In addition, in the experiment on W10 cells [1], the “specificity of binding (lack of competition with scrambled peptides)” value (shortened to “specificity of binding”) is on record as “sequence specific”. Also, the “percentage of cells labeled with peptide-Qdot complexes” value with W10 cells [2] (5 nM Qdot complexes, 16 h at 37° C., gated on untargeted Qdots) is 90%. For the same compound, the “fluorescent shift of labeled cells” value in the experiment with W10 cells [2] (compared to untargeted Qdots) is “strong fluorescent shift”. Also, the “number of embryonic progenitor cell lines with a high percentage of cells bound” value in [3] was found to be 7. Further, the figures for the “cell labeling by Qdot complexes” value in experiment [4] and in [5] were “a high percentage of cells were labeled” and “a few small patches of labeled cells”, respectively.

Turning to “GWVIDYDYYPMR (FROM PHAGE DISPLAY LIBRARY) [W10 R2 11, W10 selected 12-mer; tested as M13 display phage, C-terminal biotinylated free peptide and streptavidin Qdot complex]”, the “binding of peptide phage detected” value in the experiment with W10 progenitor cell line is reported as “strongest binding”. Besides, the “competition of the 2 peptides with each other for W10 cell binding” value in the experiment on W10 cells [1] is on record as “can compete with each other”. The “specificity of binding” value in the experiment on W10 cells [1] is listed as “sequence specific”. The “cell labeling by peptide Qdot complexes” value with 4D20.8 cells is on record as “very little labeling”; in the experiment on 7PEND24 cell line, “high percentage binding”; in the experiment with E15 cells, “very little labeling”. In addition, the figures for the “cell labeling by Qdot complexes” value in [4] and in experiment [5] were “a high percentage of cells were labeled” and “a few small patches of labeled cells”, respectively.

“GWYWETPLDMFN (FROM PHAGE DISPLAY LIBRARY) [W10 R2 21, W10 selected 12-mer; tested as M13 display phage, C-terminal biotinylated free peptide and streptavidin Qdot complex]”: in the experiment on W10 progenitor cell line, the “binding of peptide phage detected” value is “strongest binding”. In addition, the “competition for peptide phage binding (recovered phage, percentage of no-peptide control)” value with W10 cells [1] (C-terminal biotinylated free peptide at 5 nM or 5 μM, 4° C.) is “only significant at 5 μM”. The “competition of the 2 peptides with each other for W10 cell binding” value in the experiment on W10 cells [1] was “can compete with each other”. The “specificity of binding” value in the experiment with W10 cells [1] was “sequence specific”. For the same compound, the entries for the “cell labeling by peptide Qdot complexes” value with 4D20.8 cells, in the experiment with 7PEND24 cell line and with E15 cells were “very little labeling”, “high percentage binding” and “very little labeling”, respectively. The “cell labeling by Qdot complexes” value in experiment [4] is given as “a high percentage of cells were labeled”; in experiment [5], “a few small patches of labeled cells”.

Turning to “YEFDNLLNRTLW (FROM PHAGE DISPLAY LIBRARY) [W10 R2 1, W10 selected 12-mer; tested as M13 display phage, C-terminal biotinylated free peptide and streptavidin Qdot complex]”, the “binding of peptide phage detected” value in the experiment on W10 progenitor cell line is on record as “strongest binding”. Moreover, the “cell labeling by peptide Qdot complexes” value in the experiment with 4D20.8 cells and in the experiment on E15 cells was “no complex uptake” throughout. Moreover, the cell labeling result in the experiment with 7PEND24 cell line (7PEND24), in the experiment on MW1 cell line and in the experiment with SM30 cell line was “more than 15%” each time. Besides, the “cell labeling by Qdot complexes” value in experiment [4] is listed as “highly restricted to a small percentage of cells”; in experiment [5] it was “no labeling”.
